These results are taken from patent publication US4374245A, “8-[3-(6-Fluoro-1,2-benzisoxazol-3-yl)propyl]- 1-phenyl-1,3,8-triazaspiro[4.5]decan-4-one” (Hoechst-Roussel Pharmaceuticals Inc., priority 1982, dated 1983).

The structures appear in SMILES notation. Read-outs that look alike come from different tables or passages of the source.

Experiment [1] relates to apomorphine-induced climbing. Briefly: climbing mice assay (apomorphine-induced climbing, antipsychotic activity). It is filed as in vivo, CK-1 male mice. The following applies: Mus musculus, ip, read-out: Antipsychotic Activity ED50.
For experiment [2], the system named is phenyl-para-quinone induced writhes. Kind of experiment: animal or person. The following applies: Mus musculus, sc, read-out: Analgesic Activity (ED50). It is filed as in vivo, mice.

As to `O=C(CCCN1CCC(O)(c2ccc(Cl)cc2)CC1)c1ccc(F)cc1` [haloperidol], the ED50 in experiment [1] was determined as 0.11 mg/kg.
Turning to `CC(C)=CCN1CCC2(C)c3cc(O)ccc3CC1C2C` (stereo not shown) [pentazocin], in experiment [2], the ED50 is 1.3 mg/kg.
Turning to `CCC(=O)O[C@](Cc1ccccc1)(c1ccccc1)[C@H](C)CN(C)C` [propoxyphene], the ED50 in experiment [2] is 3.9 mg/kg.
As to `CCN1CCCC1CNC(=O)c1cc(S(N)(=O)=O)ccc1OC` (stereo not shown) [sulpiride], the ED50 in experiment [1] (mice, intraperitoneal, 30 minutes prior to apomorphine 1.5 mg/kg subcutaneously, climbing scored at 10, 20 and 30 minutes, linear regression) came to 4.5 mg/kg.
